From ChEMBL document CHEMBL5465560, “Selectivity Literature for EUbOPEN Chemogenomic Library” (2024) come the findings set out here.

For assay [1], the target named is T1, Serine/threonine-protein kinase D3 (Homo sapiens) (UniProt O94806).
T1 sequence (whole entry): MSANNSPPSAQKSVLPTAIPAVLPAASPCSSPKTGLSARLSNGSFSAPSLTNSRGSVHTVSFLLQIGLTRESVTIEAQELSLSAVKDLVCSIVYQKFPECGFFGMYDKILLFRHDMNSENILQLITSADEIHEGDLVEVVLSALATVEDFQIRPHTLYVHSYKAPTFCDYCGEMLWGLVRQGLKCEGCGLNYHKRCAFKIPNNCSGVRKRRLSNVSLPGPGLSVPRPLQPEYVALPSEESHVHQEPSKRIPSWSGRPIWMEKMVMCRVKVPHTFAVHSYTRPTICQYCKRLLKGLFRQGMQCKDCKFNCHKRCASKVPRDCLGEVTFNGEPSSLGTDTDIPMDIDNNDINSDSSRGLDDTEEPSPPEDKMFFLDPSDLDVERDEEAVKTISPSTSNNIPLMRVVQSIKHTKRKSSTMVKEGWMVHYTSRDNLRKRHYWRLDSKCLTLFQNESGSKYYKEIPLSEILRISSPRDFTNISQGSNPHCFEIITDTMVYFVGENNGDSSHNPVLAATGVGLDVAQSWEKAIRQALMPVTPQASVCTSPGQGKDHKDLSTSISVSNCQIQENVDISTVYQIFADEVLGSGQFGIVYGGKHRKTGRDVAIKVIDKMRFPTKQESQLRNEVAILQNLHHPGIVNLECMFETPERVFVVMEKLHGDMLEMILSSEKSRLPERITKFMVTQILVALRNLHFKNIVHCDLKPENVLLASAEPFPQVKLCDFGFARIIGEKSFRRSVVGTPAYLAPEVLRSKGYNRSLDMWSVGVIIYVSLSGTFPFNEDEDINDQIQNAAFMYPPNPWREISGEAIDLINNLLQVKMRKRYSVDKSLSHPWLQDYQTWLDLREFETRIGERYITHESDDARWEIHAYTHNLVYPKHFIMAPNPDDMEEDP
Put plainly: Selectivity interaction (KinomeScan (DiscoverX)) EUB0000595a PRKD3. The following applies: at 10 µM.

Assay [2] addresses Casein kinase I isoform gamma-1 (Homo sapiens) (UniProt Q9HCP0). Put plainly: Selectivity interaction (KinomeScan (DiscoverX)) EUB0001619a CSNK1G1. The following applies: at 1 µM.
The target in assay [3] is Dual specificity tyrosine-phosphorylation-regulated kinase 1B (Homo sapiens, UniProt Q9Y463). Description: Selectivity interaction (KinomeScan (DiscoverX)) EUB0001619a DYRK1B. The following applies: at 1 µM.
Assay [4] has as its target Mitogen-activated protein kinase kinase kinase kinase 5 (Homo sapiens) (UniProt Q9Y4K4). Put plainly: Selectivity interaction (KinomeScan (DiscoverX)) EUB0000695a MAP4K5. As to conditions: at 100 nM.
The target in assay [5] is Phosphorylase b kinase gamma catalytic chain, skeletal muscle/heart isoform (Homo sapiens) (UniProt Q16816). Description: Selectivity interaction (SelectScreen profiling (Invitrogen)) EUB0000607a PHKG1. As to conditions: at 2 µM.
Assay [6] concerns the target T2, Myosin light chain kinase family member 4 (Homo sapiens) (UniProt Q86YV6).
T2 sequence (whole entry): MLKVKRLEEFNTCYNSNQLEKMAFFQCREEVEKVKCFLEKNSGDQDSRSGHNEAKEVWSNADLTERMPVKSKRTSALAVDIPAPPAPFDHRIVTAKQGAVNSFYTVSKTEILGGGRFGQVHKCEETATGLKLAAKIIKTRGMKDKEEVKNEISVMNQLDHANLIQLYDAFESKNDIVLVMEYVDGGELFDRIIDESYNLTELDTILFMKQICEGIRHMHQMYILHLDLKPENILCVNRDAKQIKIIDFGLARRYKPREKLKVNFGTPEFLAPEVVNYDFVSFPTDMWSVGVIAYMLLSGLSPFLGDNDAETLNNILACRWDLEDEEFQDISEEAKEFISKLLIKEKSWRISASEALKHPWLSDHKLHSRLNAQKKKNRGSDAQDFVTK
Put plainly: Selectivity interaction (KinomeScan (DiscoverX)) EUB0001550a MYLK4. As to conditions: at 1 µM.

In assay [7] the target is T3, SRSF protein kinase 1 (Homo sapiens, UniProt Q96SB4). Put plainly: Selectivity interaction (ActivX KiNativ screen (kinase selectivity in THP-1 cell lysates)) EUB0000639a SRPK1. In kind it is subcellular. The following applies: lysate, at 0.2 µM.
In assay [8] the target is T3, SRSF protein kinase 1. Put plainly: Selectivity interaction (Ambit KINOMEscan and KiNATiv profiling in Jurkat cells) EUB0000090b SRPK1. Type of assay: cell-based. The following applies: at 1 µM.
The target of assay [9] is Activated CDC42 kinase 1 (Homo sapiens, UniProt Q07912). Put plainly: Selectivity interaction (KinomeScan (DiscoverX)) EUB0001049a TNK2. The following applies: at 1 µM.
The target of assay [10] is Serine/threonine-protein kinase RIO2 (Homo sapiens) (UniProt Q9BVS4). Put plainly: Selectivity interaction (KinomeScan (DiscoverX)) EUB0000655a RIOK2. As to conditions: at 10 µM.
The target in assay [11] is Serine/threonine-protein kinase MRCK alpha (Homo sapiens) (UniProt Q5VT25). Description: Selectivity interaction (Ambit KINOMEscan) EUB0000092b CDC42BPA. As to conditions: at 10 µM.
Assay [12] has as its target T4, Mitogen-activated protein kinase kinase kinase kinase 2 (Homo sapiens) (UniProt Q12851).
T4 sequence (whole entry): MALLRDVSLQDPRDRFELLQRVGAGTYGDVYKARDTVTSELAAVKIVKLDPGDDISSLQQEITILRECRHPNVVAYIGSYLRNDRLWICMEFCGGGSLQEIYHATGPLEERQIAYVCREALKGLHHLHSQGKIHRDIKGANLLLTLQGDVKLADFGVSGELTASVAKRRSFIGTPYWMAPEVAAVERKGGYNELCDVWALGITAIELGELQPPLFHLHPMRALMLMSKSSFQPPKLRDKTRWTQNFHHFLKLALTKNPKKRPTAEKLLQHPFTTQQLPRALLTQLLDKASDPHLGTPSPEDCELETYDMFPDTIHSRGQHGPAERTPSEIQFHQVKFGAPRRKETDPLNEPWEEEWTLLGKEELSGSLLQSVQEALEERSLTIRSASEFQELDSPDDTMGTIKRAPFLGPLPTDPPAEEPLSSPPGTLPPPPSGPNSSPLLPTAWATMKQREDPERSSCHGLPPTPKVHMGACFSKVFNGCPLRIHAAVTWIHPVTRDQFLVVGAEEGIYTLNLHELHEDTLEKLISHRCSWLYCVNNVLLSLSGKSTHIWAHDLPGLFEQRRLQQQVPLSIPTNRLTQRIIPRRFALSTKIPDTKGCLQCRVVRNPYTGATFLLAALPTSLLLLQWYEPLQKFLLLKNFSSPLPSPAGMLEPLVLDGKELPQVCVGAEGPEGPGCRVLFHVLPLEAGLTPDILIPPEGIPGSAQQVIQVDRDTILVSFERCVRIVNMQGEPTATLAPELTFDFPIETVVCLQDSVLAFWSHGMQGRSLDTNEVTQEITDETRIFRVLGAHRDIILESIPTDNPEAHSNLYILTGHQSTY
Description: Selectivity interaction (KinomeScan (DiscoverX)) EUB0001079a MAP4K2. The following applies: at 1 µM.

T3 sequence (Q96SB4 whole entry): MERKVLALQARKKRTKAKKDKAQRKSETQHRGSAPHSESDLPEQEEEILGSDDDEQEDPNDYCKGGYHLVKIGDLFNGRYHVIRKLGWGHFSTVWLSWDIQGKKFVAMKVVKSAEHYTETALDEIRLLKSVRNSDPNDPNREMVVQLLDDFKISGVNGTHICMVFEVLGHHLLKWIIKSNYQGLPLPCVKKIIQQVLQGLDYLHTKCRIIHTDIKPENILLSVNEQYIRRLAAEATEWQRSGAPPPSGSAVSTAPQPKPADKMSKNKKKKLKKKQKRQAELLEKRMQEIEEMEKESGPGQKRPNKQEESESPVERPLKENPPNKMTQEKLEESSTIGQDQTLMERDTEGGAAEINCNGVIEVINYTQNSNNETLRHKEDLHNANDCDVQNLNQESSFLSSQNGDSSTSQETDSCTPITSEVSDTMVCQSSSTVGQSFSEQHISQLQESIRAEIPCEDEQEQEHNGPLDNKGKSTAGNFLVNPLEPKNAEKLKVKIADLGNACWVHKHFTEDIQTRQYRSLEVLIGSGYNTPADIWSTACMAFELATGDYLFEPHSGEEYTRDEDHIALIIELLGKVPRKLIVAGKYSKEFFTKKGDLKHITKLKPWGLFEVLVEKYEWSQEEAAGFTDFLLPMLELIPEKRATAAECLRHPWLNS
Sequence of Phosphorylase b kinase gamma catalytic chain, skeletal muscle/heart isoform (Homo sapiens) (Q16816 whole entry, looked up, canonical isoform): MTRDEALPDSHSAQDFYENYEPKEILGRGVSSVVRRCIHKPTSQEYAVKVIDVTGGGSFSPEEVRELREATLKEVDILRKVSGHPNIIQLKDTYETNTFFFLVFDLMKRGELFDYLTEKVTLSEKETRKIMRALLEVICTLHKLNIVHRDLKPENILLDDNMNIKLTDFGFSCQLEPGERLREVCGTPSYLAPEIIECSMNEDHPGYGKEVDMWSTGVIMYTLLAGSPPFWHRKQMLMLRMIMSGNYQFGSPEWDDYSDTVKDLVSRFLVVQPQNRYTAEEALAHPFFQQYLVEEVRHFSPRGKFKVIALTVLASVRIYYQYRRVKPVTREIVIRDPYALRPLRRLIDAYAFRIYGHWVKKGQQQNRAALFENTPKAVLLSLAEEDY
Sequence of Serine/threonine-protein kinase RIO2 (Homo sapiens) (Q9BVS4 whole entry, looked up): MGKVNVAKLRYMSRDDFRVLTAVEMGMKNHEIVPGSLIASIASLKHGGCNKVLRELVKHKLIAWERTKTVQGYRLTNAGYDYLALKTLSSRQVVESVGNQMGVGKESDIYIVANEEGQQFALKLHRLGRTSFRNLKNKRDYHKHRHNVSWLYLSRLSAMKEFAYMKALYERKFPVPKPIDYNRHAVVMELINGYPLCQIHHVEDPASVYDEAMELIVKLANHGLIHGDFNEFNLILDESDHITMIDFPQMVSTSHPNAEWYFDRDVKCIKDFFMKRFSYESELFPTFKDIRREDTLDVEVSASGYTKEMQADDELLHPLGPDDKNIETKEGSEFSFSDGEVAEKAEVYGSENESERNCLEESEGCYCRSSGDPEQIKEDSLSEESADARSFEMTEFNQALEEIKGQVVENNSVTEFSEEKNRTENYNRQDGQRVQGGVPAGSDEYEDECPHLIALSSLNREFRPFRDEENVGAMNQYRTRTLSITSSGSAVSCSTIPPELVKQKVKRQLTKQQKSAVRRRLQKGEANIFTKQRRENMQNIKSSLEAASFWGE
Sequence of Serine/threonine-protein kinase MRCK alpha (Homo sapiens) (Q5VT25 whole entry): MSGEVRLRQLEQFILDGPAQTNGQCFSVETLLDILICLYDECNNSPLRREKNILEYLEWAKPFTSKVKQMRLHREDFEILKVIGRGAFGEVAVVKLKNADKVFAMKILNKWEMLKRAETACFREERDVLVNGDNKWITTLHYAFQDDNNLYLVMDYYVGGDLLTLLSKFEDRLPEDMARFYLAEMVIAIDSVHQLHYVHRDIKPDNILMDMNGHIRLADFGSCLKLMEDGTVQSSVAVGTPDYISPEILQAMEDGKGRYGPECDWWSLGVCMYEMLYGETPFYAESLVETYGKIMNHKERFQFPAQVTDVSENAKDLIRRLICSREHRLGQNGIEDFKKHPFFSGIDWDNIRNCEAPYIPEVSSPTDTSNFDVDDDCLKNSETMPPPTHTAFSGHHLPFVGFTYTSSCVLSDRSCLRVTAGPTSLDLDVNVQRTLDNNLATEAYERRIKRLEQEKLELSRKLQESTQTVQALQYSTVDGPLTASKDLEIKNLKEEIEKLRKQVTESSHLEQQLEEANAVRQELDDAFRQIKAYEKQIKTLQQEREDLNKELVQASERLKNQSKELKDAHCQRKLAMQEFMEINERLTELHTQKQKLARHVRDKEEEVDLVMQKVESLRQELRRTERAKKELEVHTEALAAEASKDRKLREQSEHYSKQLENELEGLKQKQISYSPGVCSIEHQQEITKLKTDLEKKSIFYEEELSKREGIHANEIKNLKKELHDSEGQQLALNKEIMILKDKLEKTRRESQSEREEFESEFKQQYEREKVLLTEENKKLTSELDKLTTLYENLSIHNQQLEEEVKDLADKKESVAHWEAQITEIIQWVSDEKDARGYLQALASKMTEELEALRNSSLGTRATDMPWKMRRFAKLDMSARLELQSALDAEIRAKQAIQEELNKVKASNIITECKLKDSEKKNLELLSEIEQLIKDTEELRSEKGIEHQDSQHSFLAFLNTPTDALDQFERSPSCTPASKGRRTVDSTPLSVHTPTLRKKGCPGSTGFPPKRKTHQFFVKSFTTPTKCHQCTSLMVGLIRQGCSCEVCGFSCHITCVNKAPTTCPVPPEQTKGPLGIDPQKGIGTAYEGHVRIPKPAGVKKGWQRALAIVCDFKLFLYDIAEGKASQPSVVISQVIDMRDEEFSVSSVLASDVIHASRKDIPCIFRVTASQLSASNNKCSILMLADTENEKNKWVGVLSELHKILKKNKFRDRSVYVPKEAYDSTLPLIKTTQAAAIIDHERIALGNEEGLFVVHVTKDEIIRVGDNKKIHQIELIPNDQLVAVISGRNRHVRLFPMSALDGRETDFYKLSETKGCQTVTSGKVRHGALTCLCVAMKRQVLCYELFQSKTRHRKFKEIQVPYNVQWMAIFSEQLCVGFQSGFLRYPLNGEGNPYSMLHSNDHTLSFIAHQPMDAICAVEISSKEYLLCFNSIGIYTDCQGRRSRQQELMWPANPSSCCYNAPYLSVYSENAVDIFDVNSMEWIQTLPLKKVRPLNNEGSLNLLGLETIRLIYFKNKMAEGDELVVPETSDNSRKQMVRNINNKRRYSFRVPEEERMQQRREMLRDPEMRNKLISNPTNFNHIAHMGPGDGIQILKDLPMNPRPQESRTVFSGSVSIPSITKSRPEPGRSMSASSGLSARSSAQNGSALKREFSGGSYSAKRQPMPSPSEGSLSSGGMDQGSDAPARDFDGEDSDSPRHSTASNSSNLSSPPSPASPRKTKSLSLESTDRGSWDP
Sequence of Activated CDC42 kinase 1 (Q07912 whole entry, looked up): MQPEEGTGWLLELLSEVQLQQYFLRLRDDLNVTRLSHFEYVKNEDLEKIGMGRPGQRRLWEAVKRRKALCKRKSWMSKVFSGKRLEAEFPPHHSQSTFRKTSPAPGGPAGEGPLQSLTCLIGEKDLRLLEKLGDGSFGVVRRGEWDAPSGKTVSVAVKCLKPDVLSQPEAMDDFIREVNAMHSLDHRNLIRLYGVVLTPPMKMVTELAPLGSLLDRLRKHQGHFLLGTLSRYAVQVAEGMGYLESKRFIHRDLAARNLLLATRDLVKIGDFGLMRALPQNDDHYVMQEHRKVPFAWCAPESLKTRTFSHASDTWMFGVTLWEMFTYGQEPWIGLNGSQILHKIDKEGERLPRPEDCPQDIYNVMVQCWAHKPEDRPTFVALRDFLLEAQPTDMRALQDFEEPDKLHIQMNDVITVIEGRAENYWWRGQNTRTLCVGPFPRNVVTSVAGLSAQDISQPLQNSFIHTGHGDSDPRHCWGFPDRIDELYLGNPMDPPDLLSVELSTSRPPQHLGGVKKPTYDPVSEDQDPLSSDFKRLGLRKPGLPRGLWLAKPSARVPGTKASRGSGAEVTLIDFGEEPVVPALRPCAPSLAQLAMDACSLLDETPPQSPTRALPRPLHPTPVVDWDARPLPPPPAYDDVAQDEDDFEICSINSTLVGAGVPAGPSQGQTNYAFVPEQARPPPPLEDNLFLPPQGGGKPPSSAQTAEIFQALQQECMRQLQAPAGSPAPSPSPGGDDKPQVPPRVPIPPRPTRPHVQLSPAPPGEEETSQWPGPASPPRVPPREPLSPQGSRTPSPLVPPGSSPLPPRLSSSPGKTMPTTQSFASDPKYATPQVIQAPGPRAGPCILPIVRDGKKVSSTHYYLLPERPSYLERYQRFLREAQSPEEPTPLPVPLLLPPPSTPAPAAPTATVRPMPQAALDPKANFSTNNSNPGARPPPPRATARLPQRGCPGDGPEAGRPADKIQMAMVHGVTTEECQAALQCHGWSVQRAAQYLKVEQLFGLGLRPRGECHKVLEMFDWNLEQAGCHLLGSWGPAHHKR
Sequence of Dual specificity tyrosine-phosphorylation-regulated kinase 1B (Q9Y463 whole entry, looked up): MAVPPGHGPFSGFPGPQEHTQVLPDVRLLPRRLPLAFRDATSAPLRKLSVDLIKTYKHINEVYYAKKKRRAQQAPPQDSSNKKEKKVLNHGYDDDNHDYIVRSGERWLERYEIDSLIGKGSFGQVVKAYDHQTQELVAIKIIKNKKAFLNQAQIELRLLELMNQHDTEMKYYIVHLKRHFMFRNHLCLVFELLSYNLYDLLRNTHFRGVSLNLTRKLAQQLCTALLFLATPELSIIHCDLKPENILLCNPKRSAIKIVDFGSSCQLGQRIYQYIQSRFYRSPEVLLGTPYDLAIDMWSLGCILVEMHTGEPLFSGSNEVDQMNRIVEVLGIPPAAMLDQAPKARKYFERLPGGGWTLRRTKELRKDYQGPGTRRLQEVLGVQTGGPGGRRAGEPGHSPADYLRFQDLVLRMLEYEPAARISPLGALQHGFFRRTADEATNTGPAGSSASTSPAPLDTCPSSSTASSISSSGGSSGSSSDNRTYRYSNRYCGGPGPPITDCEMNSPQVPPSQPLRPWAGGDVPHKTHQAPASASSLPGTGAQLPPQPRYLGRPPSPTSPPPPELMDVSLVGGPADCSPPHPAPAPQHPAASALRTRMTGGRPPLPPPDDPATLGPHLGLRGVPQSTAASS

For `COCC(=O)NC/C=C/c1ccc2ncnc(Nc3ccc(Oc4ccc(C)nc4)c(C)c3)c2c1` [CP-724714], the % of control in assay [1] was 83%.

In the case of `N#Cc1cccc(-c2c[nH]c3ncnc(N4CCOCC4)c23)c1`, the % of control in assay [2] was 100%; in assay [3], 70%.

Compound `Cc1cc(F)c(C(=O)Nc2cccc(-c3nncn3C(C)C)n2)cc1-n1cnc(C2CC2)c1` registered a % of control in assay [4] of 100%.

As for `CNC(=O)Nc1ccc(-c2nc(N3CC4CCC(C3)O4)c3cnn(C4CCC5(CC4)OCCO5)c3n2)cc1`, the % of inhibition in assay [5] came out at 7%.

In [6], `CN(C)CC#Cc1ccc2[nH]c3c(c2c1)-c1nc(N)ncc1CCC3` gave a % of control of 1.8%.

In assay [7], `CC[C@@H]1[C@H](F)C(=O)N[C@@H]1COc1nccc2cc(C(N)=O)c(OC)cc12` [ZIMLOVISERTIB] yielded a % of inhibition of 0.5%.

In the case of `CN(C)C/C=C/C(=O)Nc1ccc(C(=O)N2CCCC(Nc3ncc(Cl)c(-c4c[nH]c5ccccc45)n3)C2)cc1` (configuration not stated), the % of control in [8] is 52%.

Take `COc1cc(Nc2nc(C)cc(-c3cnn4nc(OC)ccc34)n2)cc(C(F)(F)F)c1`: the % of control in assay [9] turned out to be 77%.

Consider `CN(C)CCOc1ccc(-c2nc(-c3ccncc3)c(-c3ccc4c(c3)CC/C4=N\O)[nH]2)cc1`, for which, in assay [10], the % of control was found to be 6%.

On to `CCC(=O)N1CCN(c2ccc(-n3c(=O)ccc4cnc5ccc(-c6cnc7ccccc7c6)cc5c43)cc2C(F)(F)F)CC1`, for which the % of control in assay [11] is 0.65%.

In [12], `Nc1cnc(N2CCc3cc(S(=O)(=O)Nc4c(F)cc(Cl)cc4F)cc(N4CCCC4=O)c32)nc1` [TP-020n] came in with a % of control of 90%.
